Key:
[1] = Ratio of Cmax for test compound to Cmax for Ketamine HCL in Sprague-Dawley rat at 4.64 mg/kg,po administration measured upto 4 hrs; assay type: ADME, organism-based; details: in vivo
[2] = Ratio of AUC (0 to 4 hr) for test compound to AUC (0 to 4 hr) for Ketamine HCL in Sprague-Dawley rat at 4.64 mg/kg,po administration measured upto 4 hrs; assay type: ADME, organism-based; details: in vivo

With `C[C@H](NC(=O)c1ccc[n+](COC(=O)N(C)C2(c3ccccc3Cl)CCCCC2=O)c1)C(=O)O.[Cl-]` (some centres not stated) the Ratio [1] was 73.7% and the Ratio [2] was 63.2%.
For `CN(C(=O)OC[n+]1cccc(C(=O)N[C@@H](CCCCN)C(=O)O)c1)C1(c2ccccc2Cl)CCCCC1=O.Cl.[Cl-]` (some centres not stated), the Ratio [1] was 71.2% and the Ratio [2] was 75.4%.
`CC(C)[C@H](NC(=O)c1ccc[n+](COC(=O)N(C)C2(c3ccccc3Cl)CCCCC2=O)c1)C(=O)O.[Cl-]` (some centres not stated) showed a Ratio [1] of 223% and a Ratio [2] of 160%.
Compound `CN(C(=O)OC[n+]1cccc(C(=O)N2CCC[C@H]2C(=O)O)c1)C1(c2ccccc2Cl)CCCCC1=O.[Cl-]` (some centres not stated) has a Ratio [1] of 178% and a Ratio [2] of 166%.
`CN(CC(=O)O)C(=O)c1ccc[n+](COC(=O)N(C)C2(c3ccccc3Cl)CCCCC2=O)c1.[Cl-]` (configuration not stated) gave a Ratio [1] of 112% and a Ratio [2] of 93.9%.
Work on `CC[C@H](C)[C@H](NC(=O)c1ccc[n+](COC(=O)N(C)C2(c3ccccc3Cl)CCCCC2=O)c1)C(=O)O.[Cl-]` (some centres not stated) yielded a Ratio [1] of 246% and a Ratio [2] of 223%.
